Read-outs that look alike come from different tables or passages of the source.
How the values were obtained:
hTLR7 = target: T1, hTLR7 (Homo sapiens, UniProt Q9NYK1); experiment: EC50 assay for small molecule agonists, HEK-Blue hTLR7 cells, SEAP readout; type: cell-based; details: agonist activity
T1 construct: host or cells: HEK-Blue hTLR7 (HEK293-derived reporter cells with SEAP read-out)
T1 sequence (Q9NYK1 27-1049): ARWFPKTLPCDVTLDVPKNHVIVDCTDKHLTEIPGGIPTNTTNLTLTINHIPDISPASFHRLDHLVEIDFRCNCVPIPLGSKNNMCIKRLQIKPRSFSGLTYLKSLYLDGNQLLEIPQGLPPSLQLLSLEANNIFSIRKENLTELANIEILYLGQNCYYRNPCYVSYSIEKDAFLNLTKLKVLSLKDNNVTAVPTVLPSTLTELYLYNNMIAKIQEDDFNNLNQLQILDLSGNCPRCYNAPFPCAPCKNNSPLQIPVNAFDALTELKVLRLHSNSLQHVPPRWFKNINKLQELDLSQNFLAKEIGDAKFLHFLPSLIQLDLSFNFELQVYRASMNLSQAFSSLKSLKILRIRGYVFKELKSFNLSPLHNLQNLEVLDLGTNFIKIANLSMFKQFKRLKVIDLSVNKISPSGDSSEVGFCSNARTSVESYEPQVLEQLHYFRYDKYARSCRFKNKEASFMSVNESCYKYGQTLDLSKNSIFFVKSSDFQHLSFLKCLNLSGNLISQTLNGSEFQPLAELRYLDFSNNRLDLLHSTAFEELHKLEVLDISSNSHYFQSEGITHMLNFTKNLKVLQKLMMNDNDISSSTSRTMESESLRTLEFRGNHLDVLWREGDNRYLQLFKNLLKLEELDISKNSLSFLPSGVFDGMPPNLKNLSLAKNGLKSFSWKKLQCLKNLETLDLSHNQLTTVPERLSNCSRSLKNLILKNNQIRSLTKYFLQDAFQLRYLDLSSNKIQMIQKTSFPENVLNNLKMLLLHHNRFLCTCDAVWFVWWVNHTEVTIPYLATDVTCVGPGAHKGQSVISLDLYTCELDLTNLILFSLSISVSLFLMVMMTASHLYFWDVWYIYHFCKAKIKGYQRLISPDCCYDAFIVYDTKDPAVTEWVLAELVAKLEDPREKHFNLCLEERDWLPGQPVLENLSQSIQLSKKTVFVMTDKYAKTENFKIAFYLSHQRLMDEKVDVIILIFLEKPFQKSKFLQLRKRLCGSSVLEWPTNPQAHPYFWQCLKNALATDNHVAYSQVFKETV
Protocol: (§1) Reagents used for cell culture and detection for HEK-Blue™ hTLR7, HEK-Blue™ hTLR8 and control HEK-Blue Nu112k were as follows: DMEM (4.5 g/L glucose), bovine serum FBS, streptomycin ([…]), penicillin (50 U/mL), Blasticidin (10 mg/mL), Zeocin™ (10 mg/mL), Normocin (50 mg/mL), and HEK-Blue™ Detection. Basal medium was as follows: DMEM +10% FBS+streptomycin+penicillin+Normocin ([…]); selective medium for resistance genes was as follows: DMEM+10% FBS+streptomycin+penicillin+Normocin (1001 μg/mL)+Blasticidin (1001 μg/mL)+Zeocin™ (1001 μg/mL).
(§2) Cell preparation: HEK-Blue™ hTLR7 and HEK-Blue™ hTLR8 cell lines were purchased from Invivogen. The cells frozen in liquid nitrogen were taken, quickly placed in a water bath at 37° C., shaken occasionally, and completely melted within 1 min. The cells were transferred to 15 mL of pre-heated basal medium and resuspended; centrifuged at 1,000 r/min for 5 min, supernatant discarded; resuspended with 1 mL of basal medium, transferred to a T25 culture flask, supplemented to 5 mL with the medium, and incubated in an incubator at 37° C.; after stable passage twice, and subjected to selective antibiotic screening: HEK-Blue™ hTLR7 or HEK-Blue™ hTLR8: 100 μg/mL Zeocin+Blasticidin (30 μg/mL), HEK-Blue Nu112-k: 100 μg/mL Zeocin. The fluid was changed 3 times a week. When the number of cells reached 70%-80%, PBS was added, and the cells were exfoliated by gently pipetting.
(§3) Activity assay steps: (1) adding a test sample to a 96-well plate at 20 μL/well (triplicate wells were set); (2) adding 20 μL of positive control (e.g., R848), and adding 20 μL of negative control (e.g., ddH2O); (3) removing a T75 culture flask from the incubator, discarding the medium, adding 5-10 mL of pre-heated PBS, and gently pipetting the cells; adding 2-5 mL of PBS to the culture flask, incubating the culture flask in the incubator for 1-2 min, and then gently pipetting the cells to make them exfoliated; (4) mixing the mixture well, and counting the cells, without centrifugation; resuspending the cells with HEK-Blue™ assay solution and adjusting the cell number, taking care not to incubate for a long time to avoid too deep background or false positive. HEK-Blue hTLR cell number was about 2.2×10^5/mL, 180 μL/well (about 40000 cells), and HEK-Blue Nu112-k cell number was about 2.8×10^5/mL, 180 μL/well (about 50000 cells). (5) incubating the cells in the incubator at 37° C. for 6-16 h, and detecting at 620-655 nm for SEAP readings.
(§4) Effect %=(mean OD of the administration group−mean OD of the H2O group at each concentration)/(mean ODmax of the positive drug group−mean OD of the H2O group)×100. EC50 was calculated by fitting Lg [concentration]-effect curves using GraphPad Prism5 software.
(§5) Experimental results: the concentration for 50% of maximal effect (EC50) refers to a corresponding concentration of small molecules that can cause 50% of the maximal agonistic effect. […] EC50 represents a potency for agonizing the TLR8 receptor, with smaller values indicating better efficacy. […] In the following table, the unit of the agonist activity is nanomole, unless otherwise specified.

hTLR8 = target: T2, hTLR8 (Homo sapiens, UniProt Q9NR97); experiment: EC50 assay for small molecule agonists, HEK-Blue hTLR8 cells, SEAP readout; type: cell-based
T2 construct: host or cells: HEK-Blue hTLR8 (HEK293-derived reporter cells with SEAP read-out)
T2 sequence (Q9NR97 27-1041): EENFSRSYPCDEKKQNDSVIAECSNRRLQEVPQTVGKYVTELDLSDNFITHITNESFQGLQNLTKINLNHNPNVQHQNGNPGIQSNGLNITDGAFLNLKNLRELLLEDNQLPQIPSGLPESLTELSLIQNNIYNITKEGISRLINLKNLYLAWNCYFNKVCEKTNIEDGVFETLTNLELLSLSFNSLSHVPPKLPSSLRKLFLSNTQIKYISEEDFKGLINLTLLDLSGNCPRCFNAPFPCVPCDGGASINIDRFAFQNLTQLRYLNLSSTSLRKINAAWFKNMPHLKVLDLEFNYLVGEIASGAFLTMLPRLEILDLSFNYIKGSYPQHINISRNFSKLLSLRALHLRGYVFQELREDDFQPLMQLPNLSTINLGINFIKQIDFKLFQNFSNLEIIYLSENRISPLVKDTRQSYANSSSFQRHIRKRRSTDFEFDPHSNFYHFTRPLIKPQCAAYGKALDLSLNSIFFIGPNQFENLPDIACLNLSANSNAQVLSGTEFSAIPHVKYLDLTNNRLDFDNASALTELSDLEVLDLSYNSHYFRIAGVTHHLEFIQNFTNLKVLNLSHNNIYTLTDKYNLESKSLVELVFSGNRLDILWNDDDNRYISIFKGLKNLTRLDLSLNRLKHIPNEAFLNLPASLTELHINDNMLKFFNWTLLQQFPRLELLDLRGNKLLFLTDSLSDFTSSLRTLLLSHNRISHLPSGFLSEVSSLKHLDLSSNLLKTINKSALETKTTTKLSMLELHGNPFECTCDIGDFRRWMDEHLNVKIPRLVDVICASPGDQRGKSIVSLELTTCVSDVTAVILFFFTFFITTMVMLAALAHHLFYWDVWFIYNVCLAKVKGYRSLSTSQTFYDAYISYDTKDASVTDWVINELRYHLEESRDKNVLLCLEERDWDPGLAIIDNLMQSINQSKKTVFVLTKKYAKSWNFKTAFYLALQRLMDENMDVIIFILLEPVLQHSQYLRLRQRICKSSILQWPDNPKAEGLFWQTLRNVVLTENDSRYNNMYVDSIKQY
Protocol: as §1, §2, §3, §4, §5

[1] = agonist activity, read-out: hTLR8(EC50)
[2] = read-out: concentration for 50% of maximal effect (EC50) hTLR8

SMILES	EC50 (hTLR7; nd = EC50 larger than 25 μM)	EC50 (hTLR8; [1])	EC50 (hTLR8; [2])	EC50 (hTLR7)
CCCCCc1cc(Cc2ccccc2CN2CCOCC2)c(C)nc1N [Compound N36]	> 25000 nM	> 4000 nM	–	–
CCCCCc1cc(Cc2ccccc2CN)c(C)nc1N [Compound N37]	> 25000 nM	> 4000 nM	–	–
CCCCCc1cc(Cc2ccc(C(=O)N(C)C)cc2)c(C)nc1N [Compound N38]	> 25000 nM	> 4000 nM	–	–
CCCCCc1cc(Cc2ccc(C(=O)N3CCCC3)cc2)c(C)nc1N [Compound N39]	> 25000 nM	> 4000 nM	–	–
CCCCCc1cc(Cc2ccc(C(=O)N3CCOCC3)cc2)c(C)nc1N [Compound N40]	> 25000 nM	> 4000 nM	–	–
CCCCCc1cc(Cc2ccc(C(=O)N3CCN(C)CC3)cc2)c(C)nc1N [Compound N41]	> 25000 nM	> 4000 nM	–	–
CCCCCc1cc(Cc2ccc(CN(C)C)cc2OC)c(C)nc1N [Compound N42]	> 25000 nM	87 nM	–	–
CCCCCc1cc(Cc2ccc(CN(C)C)cc2O)c(C)nc1N [Compound N46]	> 25000 nM	351 nM	–	–
CCCCCc1cc(Cc2ccc(CN(C)C)cc2OC(=O)CC(C)C)c(C)nc1N [Compound N52]	> 25000 nM	252 nM	–	–
CCCCCc1cc(CCc2ccc(CN(C)C)cc2)c(C)nc1N [Compound N54]	> 25000 nM	518 nM	–	–
CCCCNc1cc(Cc2ccc(CN(C)C)cc2)c(C)nc1N [Compound N55]	> 25000 nM	–	15 nM	–
CCCCNc1cc(Cc2ccc(CN3CCCC3)cc2)c(C)nc1N [Compound N56]	> 25000 nM	28 nM	–	–
CCCCNc1cc(Cc2ccc(CN3CC4(COC4)C3)cc2)c(C)nc1N [Compound N57]	> 25000 nM	16 nM	–	–
CCCCNc1cc(Cc2ccc(CN3CC4(COC4)C3)cc2F)c(C)nc1N [Compound N58]	> 25000 nM	40 nM	–	–
CCCN(CCC)C(=O)C1=Cc2ccc(-c3ccc(C(=O)N4CCCC4)cc3)cc2N=C(N)C1 [VTX2337, reference compound]	–	–	102 nM	> 3000 nM

Other lines, results leading:

EC50 (hTLR7; nd = EC50 larger than 25 μM)	EC50 (hTLR8; [1])	EC50 (hTLR8; [2])	EC50 (hTLR7)	SMILES
> 25000 nM	102 nM	–	–	CCCCCc1cc(Cc2ccc(CN3CCCC3)cc2OC)c(C)nc1N [Compound N43]
> 25000 nM	1130 nM	–	–	CCCCCc1cc(Cc2ccc(CN3CCOCC3)cc2OC)c(C)nc1N [Compound N44]
> 25000 nM	166 nM	–	–	CCCCCc1cc(Cc2ccc(CN3CCN(C)CC3)cc2OC)c(C)nc1N [Compound N45]
> 25000 nM	473 nM	–	–	CCCCCc1cc(Cc2ccc(CN3CCCC3)cc2O)c(C)nc1N [Compound N47]
> 25000 nM	> 4000 nM	–	–	CCCCCc1cc(Cc2ccc(CN3CCOCC3)cc2O)c(C)nc1N [Compound N48]
> 25000 nM	627 nM	–	–	CCCCCc1cc(Cc2ccc(CN3CCN(C)CC3)cc2O)c(C)nc1N [Compound N49]
> 25000 nM	105 nM	–	–	CCCCCc1cc(Cc2ccc(CN(C)C)cc2OC(C)=O)c(C)nc1N [Compound N50]
> 25000 nM	175 nM	–	–	CCCCCc1cc(Cc2ccc(CN3CCCC3)cc2OC(C)=O)c(C)nc1N [Compound N51]
> 25000 nM	273 nM	–	–	CCCCCc1cc(Cc2ccc(CN3CCN(C)CC3)cc2OC(C)=O)c(C)nc1N [Compound N53]

Source: patent US20240116962A1, “PYRIDINE-2-AMINE DERIVATIVE AND PHARMACEUTICAL COMPOSITION AND USE THEREOF” (TSINGHUA UNIVERSITY, priority 2020, published 2024)
